≈ marks a conversion by molar mass, not a printed value. Numbered stars: 1 amine (or outer) side, 2 acyl side, 3 side chain; on linkers, the order of the positions; unused ones are H or OH. Peptide text beside a SMILES is read from it. * marks the point of attachment. X10 = C[C@@H](CN*)NC(=O)[C@@H](N)Cc1c[nH]cn1; X2 = C[C@@H](O)[C@H](N)C(=O)N[C@@H](CO)CN*; X3 = O=C(O)[C@@H]1CCCN1C(=O)NC[C@H](CO)N*; CO = O=C([*:1])[*:2]

Results on six compounds are retold here after patent publication US11267861B2, “Peptide-oligourea foldamer compounds and methods of their use” (UREKA SARL, priority 2016, dated 2022).

The target in one data set is T1, mouse GLP-1 receptor (Mus musculus, UniProt O35659).
T1 construct: mouse GLP-1 receptor endogenously expressed in βTC6 cells; endogenous in cells; host or cells: βTC6 cells
T1 sequence (O35659 22-463): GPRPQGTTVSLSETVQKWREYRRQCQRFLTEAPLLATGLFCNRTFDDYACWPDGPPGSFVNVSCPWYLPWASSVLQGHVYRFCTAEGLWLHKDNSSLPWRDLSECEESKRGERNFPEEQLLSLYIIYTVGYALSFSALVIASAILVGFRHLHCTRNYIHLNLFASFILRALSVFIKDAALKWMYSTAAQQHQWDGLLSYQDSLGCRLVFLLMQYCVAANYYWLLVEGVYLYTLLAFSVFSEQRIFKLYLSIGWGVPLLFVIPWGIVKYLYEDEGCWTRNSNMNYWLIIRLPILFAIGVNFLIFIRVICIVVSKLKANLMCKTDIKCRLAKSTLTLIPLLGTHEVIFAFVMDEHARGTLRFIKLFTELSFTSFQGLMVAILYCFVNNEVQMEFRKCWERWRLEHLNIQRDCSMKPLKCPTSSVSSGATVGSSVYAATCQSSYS
Briefly: GLP-1 functional assay: agonist activity by cAMP production (HTRF) in βTC6 cells. To be noted: read-out: EC50 (nM), GLP-1 Functional Assay. It counts as cell-based. The method, then:
For stimulated control measurement, separate assay wells contain 10 nM GLP-1(7-37) were utilized.
Following incubation, the cells were lysed and the fluorescence acceptor (D2-labeled cAMP) and fluorescence donor (anti-cAMP antibody labeled with europium cryptate) were added. […] The results are expressed as a percent of the control response to 10 nM GLP-1(7-37). The standard reference agonist is GLP-1(7-37), which was tested in each experiment at several concentrations to generate a concentration-response curve from which its EC50 value was calculated.
(§1) HTRF (Homogeneous Time-Resolved Fluorescence) principle. The HTRF technology is based on time resolved fluorescence energy transfer (TR-FRET), which occurs between long-lived fluorophore Europium or Terbium Cryptates, and EuK or Tb respectively, as a donor and the allophycocyanin XL665, d2 or Red as acceptor. Many compounds and proteins present in biological fluids or serum are naturally fluorescent, and the use of conventional, prompt fluorescence leads to serious limitations in assay sensitivity. The use of long-lived fluorophore combined with time-resolved detection (a delay between excitation and emission detection) minimizes prompt fluorescence interference.

The target in data set [1] is T2, Leucyl aminopeptidase (EC 3.4.11.1) (Sus scrofa, UniProt P28839).
T2 construct: from porcine kidney (Sigma); chromatographically purified suspension; purchased Sigma; host or cells: porcine kidney
T2 sequence (P28839 1-519): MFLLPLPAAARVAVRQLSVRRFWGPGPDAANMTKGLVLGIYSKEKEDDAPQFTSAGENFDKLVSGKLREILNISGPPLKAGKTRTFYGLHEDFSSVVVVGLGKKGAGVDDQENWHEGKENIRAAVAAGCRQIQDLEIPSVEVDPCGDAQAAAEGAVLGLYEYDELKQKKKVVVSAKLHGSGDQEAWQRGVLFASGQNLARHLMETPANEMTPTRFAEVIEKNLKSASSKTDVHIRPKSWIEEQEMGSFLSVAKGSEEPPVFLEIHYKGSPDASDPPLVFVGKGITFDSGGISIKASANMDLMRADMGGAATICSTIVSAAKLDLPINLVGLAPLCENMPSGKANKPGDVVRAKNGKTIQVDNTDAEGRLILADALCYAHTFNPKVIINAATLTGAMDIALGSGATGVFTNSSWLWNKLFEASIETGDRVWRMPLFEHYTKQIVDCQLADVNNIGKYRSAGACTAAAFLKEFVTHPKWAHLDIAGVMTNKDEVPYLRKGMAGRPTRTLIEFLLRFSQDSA
Briefly: Enzymatic degradation by leucyl aminopeptidase. It counts as in vitro ADME, porcine. The note with it: compared to the native peptides. The procedure:
Enzymatic Degradation—Leucyl Aminopeptidase. Leucyl aminopeptidase (EC 3.4.11.1) from porcine kidney (Sigma); chromatographically purified suspension in 2.9 M (NH4)2SO4, 0.1 M Tris, 5 mM MgCl2 solution, pH 8.0; stock solution in PBS buffer (pH 7.2, 0.01 M). For each degradation experiment, stock solutions of the peptidic substrate and the enzyme were made using phosphate-buffered saline (PBS) buffer solution. […] The pH was adjusted either with NaOH (1 M) or with HCl (1 M) prior to use. A solution of the substrate in PBS buffer (pH 7.2, 0.01 M) and a solution of the required amount of enzyme, were mixed and incubated at 25° C. for 4 hours. Degradation was stopped with concentrated AcOH, and buffer solution was added so that the total volume reached 150 μL.
(§2) The resulting mixture was analyzed by reversed-phase HPLC. A mixture of CH3CN/H2O (0.1% TFA) was used as eluent. Gradients were 10% CH3CN to 100% CH3CN in 10 minutes. The flow rate, for all separations, was 1 mL·min^−1.

Data set [2] concerns the target T3, Carboxypeptidase A (EC 3.4.17.1) (Bos taurus, UniProt P00730).
T3 construct: from bovine pancreas (Fluka), milky suspension; purchased Fluka; host or cells: bovine pancreas
T3 sequence (P00730 111-419): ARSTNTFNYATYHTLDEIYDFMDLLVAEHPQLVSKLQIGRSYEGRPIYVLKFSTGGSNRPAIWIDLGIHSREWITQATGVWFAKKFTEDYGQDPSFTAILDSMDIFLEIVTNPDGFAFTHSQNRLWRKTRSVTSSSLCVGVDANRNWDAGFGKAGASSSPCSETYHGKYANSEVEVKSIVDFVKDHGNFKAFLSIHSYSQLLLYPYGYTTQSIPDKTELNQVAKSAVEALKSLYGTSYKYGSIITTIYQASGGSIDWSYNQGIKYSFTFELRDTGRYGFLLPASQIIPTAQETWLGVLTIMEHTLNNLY
Kind of data set: Enzymatic degradation by carboxypeptidase A. To be noted: same results = more stable than the native peptides. It counts as in vitro ADME, bovine. The method, then: Enzymatic Degradation—Carboxypeptidase A. Carboxypeptidase A (EC 3.4.17.1) from bovine pancreas (Fluka), milky suspension, stock solution in PBS buffer (pH 7.5, 0.01 M). For each degradation experiment, stock solutions of the peptidic substrate and the enzyme were made using phosphate-buffered saline (PBS) buffer solution. The enzyme concentrations of the stock solutions were selected such that the standard substrates were totally degraded after a maximum of 15 min (ratio 2[enzyme]:100[substrate]). PBS buffer solution (10 mM sodium phosphate, 0.14 M NaCl) was prepared as follows: Solution A (4.75 mL of 0.2 M NaH2PO4.H2O), solution B (20.25 mL of 0.2 M Na2HPO4.H2O), NaCl (4.5 g) and H2O (25 mL) were stirred for 15 min at room temperature and diluted tenfold with H2O. The pH was adjusted either with NaOH (1 M) or with HCl (1 M) prior to use. A solution of the substrate in PBS buffer (pH 7.5, 0.01 M) and a solution of the required amount of enzyme, were mixed and incubated at 25° C. for 4 hours. Degradation was stopped with concentrated AcOH, and buffer solution was added so that the total volume reached 150 μL.
as §2

Data set [3] can be described thus: Solubility of glucagon analogs (UV absorbance).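 As to all read-outs here: peptide stock at 3 mg/ml in 0.01 M HCl, absorbance at 280 nm read before neutralization and again on the diluted supernatant after centrifugation.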 It is filed as physicochemical. To be noted: for solubility: 0.01M HCl solution adjusted to pH 7 with Na2HPO4, pH 7, pH adjusted to 7 with Na2HPO4, incubated overnight at 4° C.; for ratio (solubility relative to reference compound 16): relative to compound 16.
Protocol: A solution of 3 mg/ml of glucagon (or analog) was prepared in a 0.01M HCl solution. Then 0.1 ml of the stock solution was diluted to 1 ml with HCl (0.01M) and the UV absorbance measured (to 280 nm) with nanodrop UV spectrometer. The pH of the remaining stock solution was adjusted to 7 using Na2HPO4, and the solution was incubated overnight at 4° C. The solution was then centrifuged three times (5 minutes, 4000 rotations per minute), 0.1 ml of the supernatant was removed and diluted to 1 ml with HCl solution (0.01M).
The final UV absorbance was measured.
The next data set concerns the target T4, human glucagon receptor (Homo sapiens, UniProt P47871).
T4 construct: expressed in transfected cells; host or cells: CHO cells
Briefly: Glucagon functional assay: agonist activity by cAMP production (HTRF) in transfected CHO cells. The note with it: cAMP production, transfected CHO cells, 10 minutes at 37° C. It counts as cell-based. The procedure: Functional Assay to Examine Bioactivity of Glucagon Receptor Agonists. Evaluation of the agonist activity of compounds at the human glucagon receptor expressed in transfected CHO cells was examined by measuring their effects on cAMP production using the HTRF detection method. […] For stimulated control measurement, separate assay wells contain 100 nM glucagon were utilized.
Following incubation, the cells were lysed and the fluorescence acceptor (D2-labeled cAMP) and fluorescence donor (anti-cAMP antibody labeled with europium cryptate) were added. […] The results are expressed as a percent of the control response to 100 nM glucagon. The standard reference agonist is glucagon, which was tested in each experiment at several concentrations to generate a concentration-response curve from which its EC50 value was calculated.
as §1
(cAMP levels reflect the balance of adenylyl cyclase and phosphodiesterase activity.)

T4 sequence (P47871 26-477): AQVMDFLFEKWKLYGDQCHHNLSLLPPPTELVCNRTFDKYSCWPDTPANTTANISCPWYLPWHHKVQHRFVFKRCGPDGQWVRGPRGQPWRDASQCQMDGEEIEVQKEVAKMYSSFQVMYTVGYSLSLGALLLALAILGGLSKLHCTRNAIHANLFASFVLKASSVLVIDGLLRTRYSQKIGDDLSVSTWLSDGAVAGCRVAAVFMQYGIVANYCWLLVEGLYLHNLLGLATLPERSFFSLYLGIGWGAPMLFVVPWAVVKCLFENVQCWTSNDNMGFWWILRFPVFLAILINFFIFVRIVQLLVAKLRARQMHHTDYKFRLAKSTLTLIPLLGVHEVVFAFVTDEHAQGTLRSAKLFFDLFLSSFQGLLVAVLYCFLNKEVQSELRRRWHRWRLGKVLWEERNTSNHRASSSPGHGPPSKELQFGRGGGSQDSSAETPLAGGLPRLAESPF

A word on the EC50: it is the concentration that produces a half-maximal response. For the compound “{X10-CO}-EGTFTSDLSKQLEEEAVRLFIEWLKNGGPSSGAPPSKKKKKK-NH2 [Compound 67]”, the EC50 at mouse GLP-1 receptor came out at 0.082 nM.
Take `CCCC[C@H](NC(=O)[C@H](CC(C)C)NC(=O)[C@H](Cc1c[nH]c2ccccc12)NC(=O)[C@H](CCC(N)=O)NC(=O)[C@@H](NC(=O)[C@H](Cc1ccccc1)NC(=O)[C@H](CC(=O)O)NC(=O)[C@H](CCC(N)=O)NC(=O)[C@H](C)NC(=O)[C@H](CCCNC(=N)N)NC(=O)[C@H](CCCNC(=N)N)NC(=O)[C@H](CO)NC(=O)[C@H](CC(=O)O)NC(=O)[C@H](CC(C)C)NC(=O)[C@H](Cc1ccc(O)cc1)NC(=O)[C@H](CCCCN)NC(=O)[C@H](CO)NC(=O)[C@H](Cc1ccc(O)cc1)NC(=O)[C@H](CC(=O)O)NC(=O)[C@H](CO)NC(=O)[C@@H](NC(=O)[C@H](Cc1ccccc1)NC(=O)[C@@H](NC(=O)CNC(=O)[C@H](CCC(N)=O)NC(=O)[C@H](CO)NC(=O)NC[C@@H](N)Cc1c[nH]cn1)[C@@H](C)O)[C@@H](C)O)C(C)C)C(=O)N[C@@H](CC(N)=O)C(=O)N[C@H](C(=O)O)[C@@H](C)O` [Compound 17]: the “stability (half-life) with leucyl aminopeptidase compared to native peptides” value in data set [1] was “more stable than the native peptides”.
Consider `CC(C)C[C@H](NC(=O)[C@H](C)NC(=O)[C@H](Cc1c[nH]c2ccccc12)NC(=O)[C@H](Cc1ccc(O)cc1)NC(=O)[C@H](CCC(=O)O)NC(=O)[C@H](C)NC(=O)[C@H](Cc1ccccc1)NC(=O)NC[C@H](CO)NC(=O)[C@@H](N)[C@@H](C)O)C(=O)N[C@@H](CC(C)C)C(=O)N[C@@H](CO)CNC(=O)N1CCC[C@H]1C(=O)O` [Compound 24] ({X2-CO}-FAEYWALL-X3), for which the “stability with carboxipeptidase A compared to native peptides” value in data set [2] is “same results”.
Consider `CCCC[C@H](NC(=O)[C@H](CC(C)C)NC(=O)[C@H](Cc1c[nH]c2ccccc12)NC(=O)[C@H](CCC(N)=O)NC(=O)[C@@H](NC(=O)[C@H](Cc1ccccc1)NC(=O)[C@H](CC(=O)O)NC(=O)[C@H](CCC(N)=O)NC(=O)[C@H](C)NC(=O)[C@H](CCCNC(=N)N)NC(=O)[C@H](CCCNC(=N)N)NC(=O)[C@H](CO)NC(=O)[C@H](CC(=O)O)NC(=O)[C@H](CC(C)C)NC(=O)[C@H](Cc1ccc(O)cc1)NC(=O)[C@H](CCCCN)NC(=O)[C@H](CO)NC(=O)[C@H](Cc1ccc(O)cc1)NC(=O)[C@H](CC(=O)O)NC(=O)[C@H](CO)NC(=O)[C@@H](NC(=O)[C@H](Cc1ccccc1)NC(=O)[C@@H](NC(=O)CNC(=O)[C@H](CCC(N)=O)NC(=O)NC[C@H](CO)NC(=O)[C@@H](N)Cc1c[nH]cn1)[C@@H](C)O)[C@@H](C)O)C(C)C)C(=O)N[C@@H](CC(N)=O)C(=O)N[C@H](C(=O)O)[C@@H](C)O` [Compound 18], for which the “stability (half-life) with leucyl aminopeptidase compared to native peptides” value in data set [1] was “more stable than the native peptides”.
A word on the solubility: it is how much of the substance goes into solution per volume. Consider `CCCC[C@H](NC(=O)[C@H](CC(C)C)NC(=O)[C@H](Cc1c[nH]c2ccccc12)NC(=O)[C@H](CCC(N)=O)NC(=O)[C@@H](NC(=O)NC[C@H](Cc1ccccc1)NC(=O)[C@H](CC(=O)O)NC(=O)[C@H](CCC(N)=O)NC(=O)[C@H](C)NC(=O)[C@H](CCCNC(=N)N)NC(=O)[C@H](CCCNC(=N)N)NC(=O)[C@H](CO)NC(=O)[C@H](CC(=O)O)NC(=O)[C@H](CC(C)C)NC(=O)[C@H](Cc1ccc(O)cc1)NC(=O)[C@H](CCCCN)NC(=O)[C@H](CO)NC(=O)[C@H](Cc1ccc(O)cc1)NC(=O)[C@H](CC(=O)O)NC(=O)[C@H](CO)NC(=O)[C@@H](NC(=O)[C@H](Cc1ccccc1)NC(=O)[C@@H](NC(=O)CNC(=O)[C@H](CCC(N)=O)NC(=O)[C@H](CO)NC(=O)[C@@H](N)Cc1c[nH]cn1)[C@@H](C)O)[C@@H](C)O)C(C)C)C(=O)N[C@@H](CC(N)=O)C(=O)N[C@H](C(=O)O)[C@@H](C)O` [Compound 62], for which, in data set [3], the solubility was determined as 680 µg/mL (≈ 195 µM) and the “ratio (solubility relative to reference compound 16)” value is listed as 2.7. This compound came in with a concentration giving a half-maximal response (EC50) on human glucagon receptor of 53 nM.
The matching figures for `CCCC[C@H](NC(=O)[C@H](CC(C)C)NC(=O)[C@H](Cc1c[nH]c2ccccc12)NC(=O)[C@H](CCC(N)=O)NC(=O)NC[C@H](C)NC(=O)[C@H](Cc1ccccc1)NC(=O)[C@H](CC(=O)O)NC(=O)[C@H](CCC(N)=O)NC(=O)[C@H](C)NC(=O)[C@H](CCCNC(=N)N)NC(=O)[C@H](CCCNC(=N)N)NC(=O)[C@H](CO)NC(=O)[C@H](CC(=O)O)NC(=O)[C@H](CC(C)C)NC(=O)[C@H](Cc1ccc(O)cc1)NC(=O)[C@H](CCCCN)NC(=O)[C@H](CO)NC(=O)[C@H](Cc1ccc(O)cc1)NC(=O)[C@H](CC(=O)O)NC(=O)[C@H](CO)NC(=O)[C@@H](NC(=O)[C@H](Cc1ccccc1)NC(=O)[C@@H](NC(=O)CNC(=O)[C@H](CCC(N)=O)NC(=O)[C@H](CO)NC(=O)[C@@H](N)Cc1c[nH]cn1)[C@@H](C)O)[C@@H](C)O)C(=O)N[C@@H](CC(N)=O)C(=O)N[C@H](C(=O)O)[C@@H](C)O` [Compound 55]: 1390 µg/mL (≈ 401 µM), 5.5 and 34 nM.
